The record followed here is a melting point compilation (Tetko et al.; mined from patent text by program, amines drawn as free bases though some values may be those of a salt).

Usually melting point stands for the temperature, or range, at which the solid turns liquid.

Take `Cc1cc2cnnc(OCc3ccccc3)c2n1Cc1ccccc1`: the melting point worked out at 124 °C. In turn, `CCOP(=O)(Cc1nnc2c(=O)[nH]c3cc(C(F)(F)F)c(N)cc3n12)OCC` gave a melting point of 260 to 263 °C. As to `CCCNC(=O)CSc1nc(Cl)cc(Nc2cccc(C)c2C)n1`, the melting point is 146 to 148 °C. The figure for `O=C(c1cc(C(F)(F)F)cc(C(F)(F)F)c1)N1CCN(C(=O)CN2CC3CC2CN3Cc2ccccc2)C(c2ccc(Cl)c(Cl)c2)C1` (racemic) is 75 to 77 °C; for `CCOC(=O)c1cnc2c(cnn2CC)c1OCC` it is 112 to 115 °C; for `Cc1sc2ccc(Cl)cc2c1C1=NCCO1` it is 100 to 102 °C. With `CCCCCCCc1ccc(CCCCCCC)c(C#N)c1C#N` the figure was 4.6 °C; with `CCCN(CCC)c1nc2c(Cl)nccc2c(=O)[nH]1`, 180 °C. `O=C(c1nn(-c2ccc(F)cc2F)c2c1C1CCC2C1)N1CCCc2ccccc21` (stereo not drawn) yielded a melting point of 103 to 107 °C. Regarding `CCCc1c(OCCCOc2ccc(CC(=O)OC)cc2Br)ccc(C(C)=O)c1O`, the melting point is 91 to 92 °C.

Molecule `O=C(/C=C/C=C(c1cccc(F)c1)c1cccc(F)c1)NCCCCc1cccnc1` gave a melting point of 103 to 104 °C. In the case of `CCOCCCNC(=O)c1ccc(S(=O)(=O)NC(=O)c2ccc(C(=O)NCC(=O)O)nc2)cc1`, the melting point is 109 °C. The figure for `COC(=O)c1cnc(C(=O)O)cn1` is 183 to 185 °C.

The molecule `CC(C)(C(=O)OCC(=O)c1ccccc1)n1c(=O)[nH]c2cccc(F)c2c1=O` yielded a melting point of 179 to 180 °C. For `O=C(O)c1cc(=O)n(Cc2ccc(S(=O)(=O)O)cc2S(=O)(=O)O)[nH]1`, the melting point was over 300 °C. In the case of `Cc1cccc(Nc2ncnc3ccc(CSc4nc5ccccc5[nH]4)cc23)c1`, the melting point was in the range of 123 to 129 °C. In turn, `Cc1cc2cc(CN3CCCC3)cnc2cc1NC(=O)c1ccc(-c2ccc(Cl)cc2)cc1F` came in with a melting point of 195 to 198 °C. For the molecule `COCCCCN1C(=O)N(c2ccc(C#N)c(C(F)(F)F)c2)C(=O)C1(C)C`, the melting point is 80 to 81 °C.

`COc1nc2cc([N+](=O)[O-])cc(Br)c2nc1OC` gave a melting point of 171 to 175 °C. Molecule `CCc1ncnc(N[C@H]2CC[C@@H](C=O)CC2)c1Cl` showed a melting point of 96 to 97 °C.

Molecule `CC(C)Cc1sc2c(c1C(=O)c1ccccc1)CCC2C(=O)O` (stereo not drawn) registered a melting point of 106 to 108 °C.

`O=C(O)c1cn(C2CC2)c2cc(N3CCNC(CF)C3)c(F)cc2c1=O` (stereo not drawn): the melting point fell in the range of 202 to 203 °C. As for `C=Cc1cc(C(C)NC(=O)C#Cc2ccc(C(C)(C)C)cc2)cc(F)c1NS(C)(=O)=O` (stereo not drawn), the melting point lay in the range of 108 to 110 °C. The molecule `N#CC(=Cc1ccc2[nH]ccc2c1)S(=O)(=O)c1ccc([N+](=O)[O-])cc1` returned a melting point of 219 to 221 °C. `COc1c(N2CC[C@@H](C(C)(C)N)C2)c(F)cc2c(=O)c(C(=O)O)cn(C3CC3)c12`: the melting point lay in the range of 225 to 227 °C. The molecule `Cc1nc(C(C)(C)C)c(O)c(C(C)(C)C)n1` gave a melting point of 62 to 65 °C. In turn, `CSc1nccn1-c1nc(-c2ccc(Cl)cc2)c(CCC(=O)O)o1` showed a melting point of 225 to 226 °C. Molecule `Fc1ccc(-n2nccc2NC2=NCCN2)cc1` yielded a melting point of 195 to 197 °C. For `CCc1cccc(C)c1N1C(=O)C=CC1=O`, the melting point lay within 84.5 to 85 °C.

`Nc1nnc(-c2cc(F)c(F)c(F)c2O)s1`: the melting point worked out at 309 °C.

In the case of `O=C(O)C[C@@H](c1cc(F)cc(F)c1)C(F)(F)F`, the melting point fell in the range of 73 to 75 °C. As to `COc1cccc(C(O)c2cccc(C(F)(F)F)c2)c1` (stereo not drawn), the melting point lay within 51 to 52 °C.

As to `Cn1c(=O)ccc2c(-c3ccccc3)nccc21`, the melting point is 190 to 192 °C. With `COc1cc(C)c2[nH]ccc2c1C(C)(N)c1nc2cc(C#N)ccc2[nH]1` (single isomer, unassigned; (-)) the figure was 201 °C; with `O=C(O)c1ccc(-c2n[nH]c3c2Cc2ccccc2-3)cc1`, over 320 °C. On to `COc1ccc(S(=O)(=O)Nc2cccnc2Nc2ccncc2)cc1`, for which the melting point lay within 172 to 173 °C. Take `O=C(O)[C@H](COCc1ccccc1)NC1(c2ccccc2)c2ccccc2-c2ccccc21`: the melting point was in the range of 137 to 138 °C. `CC(C)OC(=O)N1CCC(c2nc3cc(-c4ccc(C(F)(F)F)cc4)ccc3o2)CC1` displayed a melting point of 123 to 126 °C. For `O=C1NC(N2CCN(c3cnccn3)CC2)c2ccccc21` (stereo not drawn), the melting point fell in the range of 242 to 246 °C. On to `COP(=O)(OC)C1=C(C)NC(C)=C(C(=O)OCCN(C)Cc2ccccc2)C1c1cccc([N+](=O)[O-])c1` (stereo not drawn), for which the melting point lay in the range of 101 to 103 °C. With `Fc1ccc(-c2cnc(SC(F)(F)F)nc2-c2ccc(F)cc2)cc1` the figure was 80 to 83 °C; with `COC(=O)c1cc(=O)c2cc(SC)ccc2[nH]1`, 264 to 266 °C.

As for `CC1=C(C(=O)OC(C)(C)C)C(c2cccc(Cl)c2Cl)C(C(=O)OC(C)(C)C)=C(C)N1`, the melting point is 144 to 145 °C. For the molecule `Brc1ccc2c(Sc3ccccc3)c[nH]c2c1`, the melting point lay in the range of 145 to 148 °C. As for `COC(=O)C(=O)c1cc[nH]c1`, the melting point worked out at 112 °C. Regarding `CNS(=O)(=O)c1cn(C)c2cc(Cl)ccc2c1=O`, the melting point lay within 220 to 223 °C.

`CCCCCCCCCCCCCCCCCCOc1cc(OCC(=O)OC)cc(C(=O)N(CC(=O)OC)CC(=O)OC)c1` displayed a melting point of 53 to 55 °C.

For `CC12CCC(=O)C=C1C(=O)CC1C2CCC2(C)C(c3cccnc3)=CCC12` (stereo not drawn), the melting point was in the range of 210 to 212 °C. `CN(CCO)Cc1cc(C(=O)c2ccccc2)cc(C(C)(C)C)c1O`: the melting point lay in the range of 118 to 119 °C. The figure for `NS(=O)(=O)c1ccc(-c2cc(-c3nc(-c4ccc(C(F)(F)F)cc4)cc(C(F)F)n3)ccn2)s1` is 242 °C; for `Clc1nc(-c2ccc(Br)cc2)nc(Cl)c1-c1ccccc1` it is 133 °C. Molecule `O=c1cc(CCN2CCC(c3c[nH]c4ccccc34)CC2)c2cc([N+](=O)[O-])ccc2[nH]1` yielded a melting point of 251 to 253 °C. Turning to `COCCNC(=O)C(C)Oc1ccc(Oc2ccc(C(F)(F)F)cc2)cc1` (stereo not drawn), the melting point was in the range of 73 to 75 °C. With `CCNC(=O)c1ccc(F)c(F)c1` the figure was 94.1 to 96.2 °C; with `C[C@@H](Cc1c2n(c3ccc(O)cc13)CCC2)NC(=O)OC(C)(C)C`, 135 to 136 °C; with `O=C1NC(=O)c2ccc(Br)cc2/C1=C/NCc1cccnc1`, 299 to 300 °C. The figure for `Cc1nc2c3cccc(Cl)c3ccn2c1CC(N)=O` is 284 to 286 °C; for `ClCCCOc1ccc(/C=C/c2nc3ccccc3o2)cc1` it is 82 to 83 °C.

For `COc1cc(-c2oc3ccc(CC(=O)NC(CC(C)C)C(N)=O)cc3c2SC)ccc1O` (stereo not drawn), the melting point was determined as 220 °C.

The molecule `Cc1nc(N2CCN(Cc3ccccc3C(F)(F)F)C2=O)sc1C(=O)NCc1ccccc1` had a melting point of 138 to 140 °C. As for `CCSc1nc2c(cc1F)c(=O)c(C(=O)O)cn2C1CC1`, the melting point was in the range of 242 to 244 °C.

Molecule `N#CCc1cc(Cl)ncc1[N+](=O)[O-]` gave a melting point of 87 to 89 °C. In turn, `COc1cccc(N(CCN2CCC(C(=O)c3ccc(F)cc3)CC2)C(=O)c2cccc([N+](=O)[O-])c2)c1` had a melting point of 123 to 125 °C.

In turn, `CCOC(=O)Nc1nn(C)c2cc(OCc3ccccc3)ccc12` came in with a melting point of 204 °C. As for `CC(C)(C)C(=O)Oc1ccc(-c2nnn(Cc3ccccc3)n2)cc1`, the melting point is 131 to 134 °C.

`O=C(Nc1c(C(O)(C(F)(F)F)C(F)(F)F)ccc2ccccc12)c1cc(Cl)cc(Cl)c1` showed a melting point of 205 to 207 °C.

Turning to `CCCc1ccc(Oc2ccc3c(c2)C=C(C(=O)Nc2ccc(CN(C)C4CCOCC4)cc2)CCS3(=O)=O)cc1`, the melting point was in the range of 147 to 149 °C.

Molecule `Cc1ccc(Cc2cnc(NCCCNc3ncc(Cl)cc3Cl)[nH]c2=O)cn1` displayed a melting point of 147 to 148 °C.

Molecule `C[C@@H]1O[C@](C#CC2CC2)(C(F)(F)F)c2cc(F)ccc2NC1=O` (relative stereo) yielded a melting point of 184 to 185 °C.

Molecule `CC(C)n1nc(-c2sc(NC(=O)CN(C)CCc3ccccn3)nc2-c2ccccc2)ccc1=O` gave a melting point of 94 to 96 °C. With `CC12CCC3C(CCC4CC=CCC43C)C1CCC2C#N` (stereo not drawn) the figure was 110 to 112 °C; with `CCOCc1cc2c(=O)c(C(=O)NCc3ccc(Cl)cc3)cn(C)c2o1`, 211 to 212 °C; with `C#CCn1c(-c2ccccc2)nc(C#C)c(CC)c1=O`, 134 to 136 °C. For `O=C(CCc1ccccc1)NCC(=O)N1c2ccccc2N(Cc2ccccc2)C(=O)[C@H]2CCC[C@H]21` (relative stereo), the melting point was in the range of 205 to 207 °C. For the molecule `CC(C)(C)NCC(O)COc1ccccc1-c1ccc(=O)[nH]n1` (stereo not drawn), the melting point is 162 to 164 °C. Consider `CN(C(=O)C(C#N)C(=O)c1nn(-c2ccccc2)c2c1COc1ccccc1-2)c1ccccc1` (stereo not drawn), for which the melting point lay in the range of 183 to 184 °C.

`O=C(Cl)c1cc([N+](=O)[O-])ccc1F`: the melting point fell in the range of 59 to 60 °C.

For `CC(=CC(=O)N1CCCC1C(=O)O)C(=O)c1ccc(Br)cc1` (stereo not drawn), the melting point was in the range of 137 to 144 °C.

`O=c1ccc2cc(-n3cnnc3)cc(C(F)(F)F)c2[nH]1` yielded a melting point of over 320 °C. `Nc1nc2ccc(Cc3ccc(F)cc3)cc2s1` yielded a melting point of 162 to 164 °C. Regarding `Cc1cccc(-n2nc(C(N)=O)nc2-c2ccccc2)c1`, the melting point was in the range of 142 to 143 °C.

Turning to `CC(C)n1c(=O)n(C)c(=O)c2c(SCCCO)n(C3Cc4ccccc4C3)cc21`, the melting point fell in the range of 123 to 125 °C. On to `C=C1N(CC)C(=O)OC12CCN(CCCN1c3ccccc3Sc3ccccc31)CC2`, for which the melting point is 122 to 123 °C.

Take `N#CCCn1cnc2ccccc21`: the melting point is 108 to 110 °C. The figure for `CCOc1nc(N)nc(C2CC2)n1` is 103 to 106 °C; for `CC(C)(OCc1nn(Cc2ccccc2)c2ccc(Cl)cc12)C(=O)O` it is 145 to 147 °C; for `COc1ccc(Nc2nc(NC3CCCCCC3)nc(N3CCCC3)n2)cc1F` it is 79 °C. `COC(=O)C1=C(CF)NC(C)=C(C(=O)OC(C)C)C1c1cccc(Cl)c1C` (stereo not drawn) registered a melting point of 73 to 75 °C.
